We go through 5 compounds from ChEMBL document CHEMBL1201862, “PubChem BioAssay data set” (2004).

Test systems include HOP-92; LOX IMVI; NCI-H226; UO-31; CCRF-CEM; MCF7; ACHN; RPMI-8226; NCI/ADR-RES; HT-29; SK-MEL-5; SF-539; CAKI-1; SR; OVCAR-8; A549; M14; HOP-62; SK-MEL-28; EKVX.
Test in all cases: NCI-60 cell line screen, 48 h

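Test compounds were applied to cells in 96-well plates for 48 hours at 5 doses. Abbreviation: GI50, concentration required for 50% inhibition of growth.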 Activity calls are given as the source filed them. No stated cut-off is given here; in the data, active = GI50 up to about 1.1 µM and inactive = higher.

On to `Cc1cccc(C)c1NC(=O)Nc1ccc(S(N)(=O)=O)cc1`, for which the GI50 in the test with HOP-92, with LOX IMVI, in the test on NCI-H226, in the test on UO-31, with CCRF-CEM and in the test with MCF7 was > 100 µM (inactive) in each case. Further, the GI50 in the test with ACHN, in the test with RPMI-8226, in the test with NCI/ADR-RES, in the test on HT-29, with SK-MEL-5 and with SF-539 was > 100 µM (inactive) in each case. In addition, the GI50 in the test with CAKI-1, with SR, with OVCAR-8, with A549, in the test on M14 and in the test on HOP-62 was > 100 µM (inactive) in each case. Besides, the GI50 in the test with SK-MEL-28 and with EKVX was > 100 µM (inactive) each time.

Regarding `COc1ccc(C(=C2C(=O)N(c3ccccc3)C(=O)C2=C(C)C)c2ccc(OC)cc2)cc1`, the GI50 in the test on HOP-92 was 10.3 µM (inactive); in the test on LOX IMVI it was 3.72 µM (inactive); in the test with NCI-H226, 4.56 µM (inactive); with UO-31 it was 2.75 µM (inactive); in the test with CCRF-CEM it was 0.546 µM (active); in the test on MCF7, 3.44 µM (inactive). The GI50 is 4.69 µM (inactive) with ACHN; 4.1 µM (inactive) with RPMI-8226; 2.57 µM (inactive) in the test on NCI/ADR-RES; 2.43 µM (inactive) in the test with HT-29; 4.61 µM (inactive) in the test with SK-MEL-5; 2.99 µM (inactive) in the test with SF-539. For the same compound, the GI50 with CAKI-1 is 3.66 µM (inactive); in the test on SR it was 1.09 µM (active); with OVCAR-8, 8.41 µM (inactive); in the test with A549, 5.21 µM (inactive); with M14, 2.4 µM (inactive); in the test with HOP-62, 9.02 µM (inactive). Besides, the GI50 in the test on SK-MEL-28 was 3.09 µM (inactive); in the test on EKVX, 2.94 µM (inactive).

With `COc1ccc(/C=C2\C[C@H]3[C@@H]4CCC5=C/C(=N/O)CC[C@]5(C)[C@H]4CC[C@]3(C)\C2=N\O)cc1OC`, the GI50 in the test on HOP-92 was 7.85 µM (inactive); in the test on LOX IMVI it was 18.8 µM (inactive); with NCI-H226, 2.51 µM (inactive); in the test on UO-31, 4.5 µM (inactive); in the test on CCRF-CEM, 6.76 µM (inactive); in the test with MCF7, 6.87 µM (inactive). The GI50 is 14.5 µM (inactive) with ACHN; 4.49 µM (inactive) with RPMI-8226; 26.4 µM (inactive) in the test with NCI/ADR-RES; 7.66 µM (inactive) with HT-29; 2.75 µM (inactive) in the test with SK-MEL-5; 16.3 µM (inactive) in the test with SF-539. Besides, the GI50 in the test with CAKI-1 was 8.43 µM (inactive); in the test with SR it was 6.14 µM (inactive); with OVCAR-8, 11 µM (inactive); with A549 it was 6.98 µM (inactive); in the test with M14 it was 40.2 µM (inactive); with HOP-62, 40.6 µM (inactive). Also, the GI50 in the test on SK-MEL-28 was 88.5 µM (inactive); with EKVX it was 3.36 µM (inactive).

`CC1(C)CN=C(Nc2ccc(F)cc2)S1`: the GI50 in the test on HOP-92 is 59.7 µM (inactive); in the test with LOX IMVI, > 100 µM (inactive); in the test on NCI-H226, > 100 µM (inactive); with UO-31, > 100 µM (inactive); in the test with CCRF-CEM, > 100 µM (inactive); in the test on MCF7, > 100 µM (inactive). Besides, the GI50 with ACHN, in the test on RPMI-8226, in the test with NCI/ADR-RES, with HT-29, in the test with SK-MEL-5 and in the test on SF-539 was > 100 µM (inactive) each time. For the same compound, the GI50 with CAKI-1, in the test with SR, in the test with OVCAR-8, in the test with A549, in the test with M14 and with HOP-62 was > 100 µM (inactive) throughout. Besides, the GI50 with SK-MEL-28 and in the test with EKVX was > 100 µM (inactive) in each case.

As for `Cc1cc(=O)n2nc(CCl)sc2n1`, the GI50 in the test on HOP-92 is 12.6 µM (inactive); with LOX IMVI, 4.19 µM (inactive); in the test on NCI-H226, 13.9 µM (inactive); in the test with UO-31, 14.3 µM (inactive); in the test on CCRF-CEM it was 6.62 µM (inactive); in the test on MCF7, 13.8 µM (inactive). For the same compound, the GI50 is 14.3 µM (inactive) in the test with ACHN; 10.6 µM (inactive) with RPMI-8226; 20.7 µM (inactive) in the test on NCI/ADR-RES; 14.8 µM (inactive) with HT-29; 10.6 µM (inactive) with SK-MEL-5; 18.7 µM (inactive) with SF-539. Also, the GI50 was 10.3 µM (inactive) with CAKI-1; 13.1 µM (inactive) in the test with SR; 16.7 µM (inactive) in the test with OVCAR-8; 16.5 µM (inactive) in the test with A549; 11.2 µM (inactive) in the test with M14; 18.1 µM (inactive) in the test with HOP-62. Moreover, the GI50 was 13.2 µM (inactive) in the test on SK-MEL-28 and 17.4 µM (inactive) in the test with EKVX.
